Measurements reported in patent EP0329361A2, “2-pyranone derivatives and process for production thereof” (priority 1988, dated 1989).

Key:
Botrytis cinerea RR-4 = test: Disease suppressive activity against gray mold, cucumber seedling cotyledon test; type: in vivo; conditions: strain RR-4 (multi-resistant strain), incubated at 20°C for three days
Description: (§1) The disease suppressive activity of the present compounds I-a, I-c (and I-b), I-d (and I-e), I-f, I-g, I-h, and I-i against the gray mold was tested by the following procedure. A solution of the present compound having a predetermined concentration was coated,with an absorbent cotton block, on the cotyledon of a cucumber seedling seven days after seeding. One day after the coating, an agar disk having a diameter of 5 mm containing Botrytis cinerea was put on the coated cotyledon, the plant was incubated at 20°C for three days, and the disease suppresive activity of the tested compound was observed. In Table 4, Botrytis cinerea RR-4 is a strain resistant to antimicrobial agents (multi-resistant strain), isolated from a diseased seedling of egg plant, and Botrytis cinerea S-9 is a strain sensitive to antimicrobial agents, isolated from a diseased petal of orange blossom. Note, the extent of the disease suppressive effect is expressed by symbols + (no lesion), ± (lesion having a diameter of less than 10 mm formed), and - (lesion having a diameter of not less than 10 mm formed).

Botrytis cinerea S-9 = test: as above; type: in vivo; conditions: strain S-9 (sensitive to antimicrobial agents), incubated at 20°C for three days
Description: as §1

[1] = 32 ppm coated on cucumber seedling cotyledon
[2] = 125 ppm coated on cucumber seedling cotyledon
[3] = 8 ppm coated on cucumber seedling cotyledon

CCC1C=CC(=O)OC1C=CC(O)(CCN)C(CC(O)C=CC=CC1CCCCC1)OP(=O)(O)O (stereo not drawn) [I-a]
Disease suppressive effect to Botrytis cinerea (Botrytis cinerea RR-4; [1]): - (- (lesion having a diameter of not less than 10 mm formed))
Disease suppressive effect to Botrytis cinerea (Botrytis cinerea RR-4; [2]): +
Disease suppressive effect to Botrytis cinerea (Botrytis cinerea S-9; [1]): - (- (lesion having a diameter of not less than 10 mm formed))
Disease suppressive effect to Botrytis cinerea (Botrytis cinerea S-9; [2]): +

CCC1C=CC(=O)OC1C=CC(O)(CCN)C(CC(O)C=CC=CC1CCCC(OC(=O)C2CCCCC2)C1)OP(=O)(O)O (stereo not drawn) [I-f]
Disease suppressive effect to Botrytis cinerea (Botrytis cinerea RR-4; [3]): +
Disease suppressive effect to Botrytis cinerea (Botrytis cinerea RR-4; [1]): +
Disease suppressive effect to Botrytis cinerea (Botrytis cinerea S-9; [3]): +
Disease suppressive effect to Botrytis cinerea (Botrytis cinerea S-9; [1]): +

CCC(C)CCC(=O)OC1CCCC(C=CC=CC(O)CC(OP(=O)(O)O)C(O)(C=CC2OC(=O)C=CC2CC)CCN)C1 (stereo not drawn) [I-g]
Disease suppressive effect to Botrytis cinerea (Botrytis cinerea RR-4; [3]): +
Disease suppressive effect to Botrytis cinerea (Botrytis cinerea RR-4; [1]): +
Disease suppressive effect to Botrytis cinerea (Botrytis cinerea S-9; [3]): +
Disease suppressive effect to Botrytis cinerea (Botrytis cinerea S-9; [1]): +

CCC1C=CC(=O)OC1C=CC(O)(CCN)C(CC(O)C=CC=CC1CCCC(OC(=O)CCCCC(C)C)C1)OP(=O)(O)O (stereo not drawn) [I-h]
Disease suppressive effect to Botrytis cinerea (Botrytis cinerea RR-4; [3]): - (- (lesion having a diameter of not less than 10 mm formed))
Disease suppressive effect to Botrytis cinerea (Botrytis cinerea RR-4; [1]): +
Disease suppressive effect to Botrytis cinerea (Botrytis cinerea S-9; [3]): - (- (lesion having a diameter of not less than 10 mm formed))
Disease suppressive effect to Botrytis cinerea (Botrytis cinerea S-9; [1]): +

CCCCCCCC(=O)OC1CCCC(C=CC=CC(O)CC(OP(=O)(O)O)C(O)(C=CC2OC(=O)C=CC2CC)CCN)C1 (stereo not drawn) [I-i]
Disease suppressive effect to Botrytis cinerea (Botrytis cinerea RR-4; [3]): - (- (lesion having a diameter of not less than 10 mm formed))
Disease suppressive effect to Botrytis cinerea (Botrytis cinerea RR-4; [1]): +
Disease suppressive effect to Botrytis cinerea (Botrytis cinerea S-9; [3]): - (- (lesion having a diameter of not less than 10 mm formed))
Disease suppressive effect to Botrytis cinerea (Botrytis cinerea S-9; [1]): +

CC12CC1(C)C(=O)N(c1cc(Cl)cc(Cl)c1)C2=O (stereo not drawn) [Procymidone, reference compound]
Disease suppressive effect to Botrytis cinerea (Botrytis cinerea RR-4; [1]): - (- (lesion having a diameter of not less than 10 mm formed))
Disease suppressive effect to Botrytis cinerea (Botrytis cinerea RR-4; [2]): - (- (lesion having a diameter of not less than 10 mm formed))
Disease suppressive effect to Botrytis cinerea (Botrytis cinerea S-9; [1]): - (- (lesion having a diameter of not less than 10 mm formed))
Disease suppressive effect to Botrytis cinerea (Botrytis cinerea S-9; [2]): +
